Laboratory results as given in patent US8883827B2, “Azole derivatives as WTN pathway inhibitors” (Oslo University Hospital HF, priority 2009, dated 2014).

Assays:
Assay type in all cases: cell-based
[1] = tested on: SW480 colon carcinoma cells; experiment: MTS cell proliferation assay, Table 5; details: Homo sapiens; SW480, 10 μM, 72 h; relative to DMSO control; read-out: Cell proliferation (%) for test compounds
Method: For the experiment giving the results shown in Table 5, cells (3000 per well) were seeded on 96 well plates (eight replicates per treatment). After 24 hours, and daily thereafter, cell culture medium (including 10% FBS) was mixed with 10 μM compounds or with 0.1% DMSO vehicle and then added to the wells. Sixteen wells of seeded control cells, defining incubation time zero (t0=24 hour after cell seeding), were incubated with 20 μl substrate in 100 μl phenol free D-MEM (Invitrogen) for 2 hours, as described in the CellTiter 96® AQueous Non-Radioactive Cell Proliferation Assay protocol (Promega). The A490 was recorded. The treatment samples were likewise measured after 72 hours.
The quantity of reduced MTS product (as measured by the absorbance at 490 nm) is directly proportional to the number of living cells in the culture and thus allows a direct comparison of cell proliferation in each case. DMSO was used as a control. The following formula was used to determine single well relative A490 sample values: ((Sample A490−Average A490t0)*100)/(Average A490t720.1% DMSO control−Average A490t0)
The proliferation of SW480 cells (in percent) is the A492 value relative to that of the DMSO control.

canonical Wnt signaling [2] = experiment: ST-Luc (SuperTOPFlash) Luciferase assay in HEK293 cells, 30% Wnt3a-CM; details: Homo sapiens, HEK293; 10 μM compound, 30% Wnt3a-CM, 24 h; relative to DMSO control
Method: Inhibition of Wnt signaling by compound No. 1 was quantified in vitro using a Luciferase assay in HEK293 cells transiently transfected with SuperTOPFlash plasmid (ST-Luc) (Veeman M T et al., Curr. Biol. 13: 680-685, 2003) at concentrations from 0.1-10 μM. HEK293 cells were purchased from ATCC (American Type Culture Collection) and maintained according to suppliers recommendations.
Transfection was performed using 80000 HEK293 cells seeded in 48-well plates coated with poly-L lysine. After 24 hours, 0.25 μg total plasmid DNA (0.23 μg SuperTOPFlash+0.02 μg pRL-TK (Renilla)—Promega) and 0.75 μl FuGENE6 (Roche) was combined in a total volume in 25 μl Opti-MEM® (Invitrogen) as described by the manufacturer (Roche). The transfection mixture was added to the plated cells and media were changed after 24 hours.
The Luciferase assay was performed by incubating transfected cells for 24 hours with various concentrations of compound No. 1 in 30% Wnt3a-CM (Wnt3a containing conditioned medium from L Wnt3a cells was harvested as described by ATCC). All treated reporter cells were finally lysed and the firefly luciferase and Renilla activities were measured on a 20/20n Luminometer (Turner BioSystems) as described in the Dual-Glo™ Luciferase Assay System Technical Manual (Promega).
HEK293 cells were transfected, grown and assayed as described in Example 22. 24 hours after seeding, the cells were incubated for an additional 24 hours with 10 μM concentrations of compounds in 30% Wnt3a-CM.
The percent activities shown in Table 3 are calculated relative to DMSO as a control. Some values shown are averages of multiple measurements. Compound XAV939 (Novartis; Huang et al., Nature (2009), 461, pp. 614-20) which is used as a positive control, has an activity of 7%.

canonical Wnt signaling [3] = experiment: IC50 in STF/REN HEK293 cells, 50% Wnt3a-CM; details: Homo sapiens; STF/REN HEK293, 50% Wnt3a-CM, 24 h
Method: IC50 values were calculated using STF/REN HEK293 cells prepared essentially according to Example 22. Briefly, HEK293 cells (80,000 cells per well) were seeded in 48-well plates coated with poly-L lysine. 24 hours after seeding, the cells were incubated for an additional 24 hours with various compound concentrations in 50% Wnt3a-CM. After compound exposure, the cells were lysed and the firefly luciferase and Renilla activities were measured on a 20/20n Luminometer (Turner BioSystems) as described in the Dual-Glo™ Luciferase Assay System Technical Manual (Promega).
XLfit (idbs) was used to determine the IC50 and GI50 values in inhibition experiments. The data were fit to the following formulae:
IC50: Langmuir Binding Isotherm: fit=((A+(B*x))+(((C−B)*(1−exp((−1*D)*x)))/D)) res=(y−fit)

IC50 (canonical Wnt signaling [3]) | SMILES | activity at 10 µM [1] | activity at 10 µM (canonical Wnt signaling [2])
– | Cc1ccc(-c2nnc(S[C@H](C)c3nnc(-c4ccncc4)n3-c3ccccc3Cl)o2)cc1 [100b] | 66% | 5%
– | COc1ccc(-n2c(SCCc3nc(-c4ccc(C)cc4)no3)nnc2-c2ccncc2)cc1 [Compound 2] | – | 31.8%
– | Cc1ccc(-c2noc(CSc3nnc(-c4ccncc4)n3-c3ccc(Cl)cc3)n2)cc1 [Compound 3] | – | 32.5%
– | COc1ccc(-n2c(OCc3nc(-c4ccc(C)cc4)no3)nnc2-c2ccncc2)cc1 [Compound 4] | – | 98.4%
– | COc1ccc(-n2c(CCN(C)C)nnc2-c2ccncc2)cc1 [Compound 6] | – | 55.7%
10 µM | Fc1ccc(-n2c(SCc3nc(-c4ccc(Cl)cc4)no3)nnc2-c2ccncc2)cc1 [Compound 12] | – | 38.8%
7.1 µM | COc1ccc(-n2c(SCc3nc(-c4cccs4)no3)nnc2-c2ccncc2)cc1 [Compound 13] | – | 34.5%
– | COc1ccc(-n2c(SC)nnc2-c2ccncc2)cc1 [Compound 14] | – | 63.5%
– | COc1ccc(-n2c(S)nnc2-c2ccncc2)cc1 [Compound 15] | – | 69.1%
– | COc1ccc(-n2c(O)nnc2-c2ccncc2)cc1 [Compound 16] | – | 71.8%
– | Sc1nnc(-c2ccncc2)n1-c1ccc(Cl)cc1 [Compound 17] | – | 76.8%
10 µM | Fc1ccc(-n2c(SCc3nc(-c4cccc(Cl)c4)no3)nnc2-c2ccncc2)cc1 [Compound 21] | – | 90.1%
10 µM | CCOc1ccc(-n2c(SCc3nc(-c4cccc(Cl)c4)no3)nnc2-c2ccncc2)cc1 [Compound 25] | – | 59%
– | COc1ccc(-n2c(SCc3cn4ccccc4n3)nnc2-c2ccncc2)cc1 [Compound 27] | – | 80.3%
– | CCOc1ccc(-n2c(SCc3nnc(C)o3)nnc2-c2ccncc2)cc1 [Compound 30] | – | 78%
– | COc1ccc(-n2c(SCCNC(C)=O)nnc2-c2ccncc2)cc1 [Compound 33] | – | 79.6%
– | Cc1ccc(-c2noc(CSc3nnc(-c4cccc(O)c4)n3-c3ccccc3C)n2)cc1 [Compound 45] | – | 78.1%
0.95 µM | Cc1ccccc1-n1c(SCc2nc(-c3cccc(O)c3)no2)nnc1-c1ccncc1 [Compound 47] | – | 8.7%
– | Cc1ccccc1-n1c(SCc2nc(-c3ccccc3Cl)no2)nnc1-c1ccncc1 [Compound 56] | – | 55.1%
– | Cc1ccccc1-n1c(SCc2nc(-c3cccc(C(F)(F)F)c3)no2)ccc1-c1ccncc1 [Compound 57] | – | 51.8%
– | Cc1ccc(-c2nc(CSc3nnc(-c4ccncc4)n3-c3ccccc3Cl)sc2C)cc1 [Compound 62] | – | 58%
– | Cc1ccc(-c2nnc(Sc3nnc(-c4ccncc4)n3-c3ccccc3Cl)s2)cc1 [Compound 63] | – | 99%
– | N#Cc1ccc(-c2nnc(CSc3nnc(-c4ccncc4)n3-c3ccccc3Cl)o2)cc1 [Compound 69] | – | 26%
– | Cc1ccc(-c2noc(CSc3nnc(-c4cccnc4)n3-c3ccccc3C)n2)cc1 [Compound 77] | – | 51%

IC50 (canonical Wnt signaling [3]) | SMILES | activity at 10 µM [1] | activity at 10 µM (canonical Wnt signaling [2])
– | Cc1ccc(-n2c(SC(C)c3nc(-c4ccncc4)no3)nnc2-c2ccncc2)cc1C (centres unmarked) [Compound 79] | 70% | 16%
– | CC(Sc1nnc(-c2ccccc2)n1-c1ccc(F)cc1F)c1nc(-c2ccncc2)no1 (centres unmarked) [Compound 80] | – | 32%
– | Cc1ccc(-n2c(SCc3nc(C(C)(C)C)no3)nnc2-c2ccncc2)cc1 [Compound 81] | – | 89%
– | Cc1ccccc1-n1c(SCC(=O)Nc2ncccn2)nnc1-c1ccncc1 [Compound 82] | – | 83%
– | Cc1ccc2nc(CSc3nnc(-c4ccncc4)n3-c3ccccc3C)cc(=O)n2c1 [Compound 85] | – | 43%
– | CC1CCCCC1n1c(SCc2nnc(-c3ccccc3)o2)nnc1-c1cccnc1 (centres unmarked) [Compound 87] | – | 52%
– | Cc1ccccc1-n1c(SCC(=O)NCc2cccs2)nnc1-c1ccncc1 [Compound 88] | – | 99%
– | Cc1ccccc1-n1c(SCC(=O)Nc2ccc3c(c2)CCC3)nnc1-c1ccncc1 [Compound 89] | – | 94%
– | Cc1ccc(NC(=O)CSc2nnc(-c3ccncc3)n2-c2ccc(C)cc2)cc1 [Compound 92] | – | 84%
– | Cc1ccc(-n2c(SCC(=O)NC3CCCC3)nnc2-c2ccncc2)cc1 [Compound 93] | – | 91%
– | O=C(CSc1nnc(-c2ccncc2)n1-c1ccccc1)Nc1ccccn1 [Compound 97] | – | 80%
– | COc1cc(OC)cc(-c2nnc(SCc3nnc(-c4ccc(C)cc4)o3)n2-c2ccccc2Cl)c1 [Compound 107] | 47% | 4.5%
1.75 µM | Cc1ccc(-c2noc(CS(=O)(=O)c3nnc(-c4ccncc4)n3-c3ccccc3Cl)n2)cc1 [compound 66] | – | 25.6%
< 0.1 µM | NCCCOCCCOc1cccc(-c2noc(CSc3nnc(-c4ccncc4)n3-c3ccccc3Cl)n2)c1 [compound 67] | – | 12.7%
– | Cc1ccccc1-c1nnc(CSc2nnc(-c3ccncc3)n2-c2ccccc2Cl)o1 [compound 71] | – | 31%
– | Cc1ccc(-c2nnc(CSc3nnc(-c4ccncc4)n3-c3ccccc3Cl)o2)cc1Br [compound 73] | – | 29%
0.371 µM | Cc1ccc(-c2nnc(CSc3nnc(-c4ccncc4)n3-c3ccccc3Cl)o2)s1 [compound 74] | – | 13%
– | Cc1ccc(-c2nnc(CCc3nnc(-c4ccncc4)n3-c3ccccc3Cl)o2)cc1 [compound 101] | 47% | 23%
– | Cc1cc2nc(CSc3nnc(-c4ccncc4)n3-c3ccccc3Cl)cc(=O)n2cc1C [compound 103] | 67% | 20%
– | Cc1ccc(-c2nnc(CSc3nnc(-c4cc(O)cc(O)c4)n3-c3ccccc3Cl)o2)cc1 [compound 106, (5-((5-p-tolyl-1,3,4-oxadiazol-2-yl)methylthio)-4-(2-chlorophenyl)-4H-1,2,4-triazol-3-yl)benzene-1,3-diol] | 63% | 14.5%
– | CCOc1ccc(-c2nnc(SCc3nnc(-c4ccc(C)cc4)o3)n2-c2ccccc2Cl)cc1 [compound 109, 3-((5-p-tolyl-1,3,4-oxadiazol-2-yl)methylthio)-4-(2-chlorophenyl)-5-(4-ethoxyphenyl)-4H-1,2,4-triazole] | 33% | 0.6%
– | Cc1ccc(-c2nnc(CSc3nnc(-c4ccc(Cl)cc4)n3-c3ccccc3Cl)o2)cc1 [compound 111, 3-((5-p-tolyl-1,3,4-oxadiazol-2-yl)methylthio)-4-(2-chlorophenyl)-5-(4-chlorophenyl)-4H-1,2,4-triazole] | 44% | 0.7%
– | Cc1ccc(-c2nnc(CSc3nnc(-c4ccc(F)cc4)n3-c3ccccc3Cl)o2)cc1 [compound 115, 3-((5-p-tolyl-1,3,4-oxadiazol-2-yl)methylthio)-4-(2-chlorophenyl)-5-(4-fluorophenyl)-4H-1,2,4-triazole] | 60% | 5%
– | Cc1ccc(-c2nnc(CSc3nnc(-c4cnc(N)nc4)n3-c3ccccc3Cl)o2)cc1 [compound 132, 5-(5-((5-p-tolyl-1,3,4-oxadiazol-2-yl)methylthio)-4-(2-chlorophenyl)-4H-1,2,4-triazol-3-yl)pyrimidin-2-amine] | – | 32%
